Test results published in PMC8881501, “Identification of SARS-CoV-2 inhibitors targeting Mpro and PLpro using in-cell-protease assay” (Communications Biology, 2022).
Values joined by “and” are separate entries in the source; they are usually repeats but may differ in a detail not shown here. Equal values may be shown once. Where a name gives a salt, the structure may show the parent alone. Read-outs that look alike come from different tables or passages of the source.

How the values were obtained:
SARS-CoV-2 PLpro [1] = biological target: T1, SARS-CoV-2 PLpro (Severe acute respiratory syndrome coronavirus 2, UniProt P0DTC1); experiment: cell-based; details: HEK-293T, read-out: mEmerald-NLS nuclear/total fluorescence (protease activity) normalized to untreated cells, 10 μM, HEK293T, Fig 2A replicate data, untreated control = 100
SARS-CoV-2 [2] = experiment: qRT-PCR of viral RNA molecules in infected Huh-7.5 cells; type: cell-based; details: Huh-7.5, 24 h.p.i.
Protocol: We tested the effect of selected compounds in inhibiting the spread of SARS-CoV-2 on cell monolayers was tested by immunofluorescence assay (IFA) (Fig. 5a). From the percentage of inhibition (Fig. 5b), we calculated that the PLpro inhibitors Sitagliptin and Daclastavir inhibited virus spread by 75% and 70%, respectively, compared to untreated controls (Fig. 5b). […] We next determined whether the reduction in virus spread in the inhibitor-treated cells correlates with virus replication. We extracted total RNA from infected cells treated with inhibitors and quantified the number of viral RNA molecules by quantitative real-time polymerase chain reaction (qRT-PCR) (Fig. 5c). […] However, the reduction in the number of viral RNA molecules was lower for BMS-707035 (1-log reduction), Atazanavir (0.5-log), and Lomibuvir (0.5-log).
Fig. 5 Effect of compounds selected from ICP assay on SARS-CoV-2 replication. a Huh-7.5 cells positive for SARS-CoV-2 determined by immunofluorescence assay. Huh-7.5 cells pre-treated for 24 h with inhibitors were infected with SARS-CoV-2 at an MOI of 0.1. At 24 h.p.i., cells were fixed with paraformaldehyde and probed with anti-N (SARS CoV-2 nucleocapsid) primary antibody and FITC-conjugated goat anti-rabbit secondary antibody (green, infected cells). Nuclei were stained with Hoechst stain and confocal images were acquired. b The ratio of infected to uninfected cells for each treatment was calculated using Nikon Elements software and normalized to untreated controls (n = 5). c Quantification of SARS-CoV-2 RNA molecules from infected cells treated with inhibitors as indicated (n = 3).
Huh-7.5 cells grown in DMEM in 6 well tissue culture plates were pre-treated with different concentrations of compounds for 24 h were infected with 0.1 MOI of SARS-CoV-2. After 1 h of infection, virus-containing media were replaced with fresh media-containing compounds, and the plates were incubated at 37 °C. Untreated cells were included in the experiment as controls. After 24 h, total RNA was extracted from the cells using a Zymopure Quick-RNA extraction kit. The number of viral RNA molecules in the extracted total RNA samples was determined by quantitative RT-PCR on a QuantStudio-3 machine (Applied BioSystems) using primers –Forward […] and Reverse […]. The Ct values obtained were used to calculate the number of RNA molecules using a standard curve of Ct versus RNA molecules.

SARS-CoV-2 [3] = type: cell-based; details: Huh-7.5, MOI 0.1, 24 h.p.i., anti-N IFA
SARS-CoV-2 PLpro [4] = biological target: T1, SARS-CoV-2 PLpro; experiment: In vitro PLpro protease inhibition assay (Z-RLRGG-AMC); type: biochemical; details: PLpro 300 nM, Z-RLRGG-AMC 25 μM; read-out: IC50
SARS-CoV-2 Mpro [5] = biological target: T2, SARS-CoV-2 Mpro (Severe acute respiratory syndrome coronavirus 2, UniProt P0DTC1); experiment: In-cell protease (ICP) assay, Mpro construct in HEK293T cells; type: cell-based; details: for remaining activity at 1 µM / remaining activity at 10 µM: HEK-293T; for remaining activity at 1 µM: read-out: mEmerald-NLS nuclear/total fluorescence (protease activity) normalized to untreated cells, 1 μM, HEK293T, Fig 2A replicate data, untreated control = 100; for remaining activity at 10 µM: read-out: mEmerald-NLS nuclear/total fluorescence (protease activity) normalized to untreated cells, 10 μM, HEK293T, Fig 2A replicate data, untreated control = 100
COVID-19 = test system: COVID-19; parameters: method as in PMID 32994187; details: cited from earlier work
in vitro = details: human, CC50, Huh-7.5 cells, alamarBlue reduction
SARS-CoV-2 [6] = experiment: microbe, parasite or virus in culture; type: cell-based; details: for EC50: Severe acute respiratory syndrome coronavirus 2, Huh7.5, Huh-7.5 cells, MOI 0.1, 24 h.p.i., plaque assay
Huh-7.5 cells = experiment: Cytotoxicity assay (alamarBlue) on Huh-7.5 cells; details: Huh-7.5 cells, alamarBlue reduction
HEK293T cells = experiment: Cell viability (alamarBlue) on HEK293T cells; details: replicate data
SARS-CoV-2 [7] = experiment: Time of addition (pre-treatment) experiment in Huh-7.5 cells, plaque assay; type: cell-based; details: Huh-7.5, pretreatment
SARS-CoV-2 Mpro [8] = biological target: T2, SARS-CoV-2 Mpro; experiment: biochemical; details: FRET assay
Protocol: A cleavage site is indicated by an asterisk. […] N = 3, values are represented as mean ± SE.
For the determination of half-maximal inhibitory concentrations (IC50) of MG-101 and GC376 (BPS Bioscience), a synthetic substrate of Mpro containing FRET pair and Mpro nsp4/5 cleavage site (indicated by an arrow, Dabcyl-KTSAVLQ ↓ SGFRKME-Edans) (BPS Bioscience) was used for the FRET-based cleavage assay. The assay was performed in 96-well, black, flat-bottomed microtiter plates (Greiner Bio-One, Germany) with a final volume of 50 μl. Mpro (a final concentration of 200 nM) was pre-incubated for 1 h at 22 °C with compounds at different concentrations in the assay buffer (20 mM HEPES (pH 7), 0.5 mM EDTA, 1 mM dithiothreitol, 5% glycerol). The substrate was then added at a final concentration of 10 μM to the reaction mixture and the reaction was incubated for 4 h at 22 °C. The readings for the different concentrations of the inhibitor compounds incubated with the substrate without Mpro were measured as a blank. The fluorescence signals (excitation/emission, 360 nm/460 nm) of released EDANS were measured using Infinite 200 PRO multimode plate reader (Tecan, USA). The results were plotted as dose inhibition curves using nonlinear regression with a variable slope to determine the IC50 values of inhibitor compounds using GraphPad Prism 9.0.

[9] = Cytotoxicity assay (alamarBlue) on Huh-7.5 cells; details: human, CC50, Huh-7.5 cells, alamarBlue reduction
SARS-CoV-2 [10] = details: Vero E6 cells; cited from earlier work

**Q.** With `N[C@@H](CC(=O)N1CCn2c(nnc2C(F)(F)F)C1)Cc1cc(F)c(F)cc1F` [Sitagliptin] as the compound, how does the remaining activity at 10 µM (SARS-CoV-2 PLpro [1]) read?
**A.** 56%

**Q.** What about the “reduction in the number of viral RNA molecules compared to untreated cells” value (“reduction in the number” for short) (SARS-CoV-2 [2]) of the same compound?
**A.** 2 log

**Q.** And the “inhibition of virus spread compared to untreated controls” value (SARS-CoV-2 [3])?
**A.** 75%

**Q.** And the IC50 (SARS-CoV-2 PLpro [4])?
**A.** 1.14 ± 0.19 µM

**Q.** And the “effect on Mpro activity in cells” value (SARS-CoV-2 Mpro [5]; ICP assay)?
**A.** does not inhibit Mpro activity

**Q.** And the “mortality rate (deceased patients)” value (COVID-19; added to standard care, vs. 37% with standard of care)?
**A.** 18%

**Q.** What about the “improved clinical outcomes (improved patients)” value (COVID-19; vs. 38% with standard of care) of the same compound?
**A.** 60%

**Q.** And the “hospital discharges (discharged patients)” value (COVID-19; vs. 89 with standard of care)?
**A.** 120

**Q.** And the CC50 at 24 h (in vitro)?
**A.** 21.6 µM

**Q.** And the “Selectivity index SI = CC50/EC50” value (SARS-CoV-2 [6])?
**A.** 67

**Q.** What about the EC50 (SARS-CoV-2 [6]) of the same compound?
**A.** 0.32 µM

**Q.** And the “virus titer at 24 h.p.i., Fig 6A data” value (SARS-CoV-2 [6]; single drug 1 μM, Huh 7.5, replicates)?
**A.** 56000 and 64000 and 40000

**Q.** And the CC50 (Huh-7.5 cells)?
**A.** 22 µM

**Q.** With `COC(=O)N[C@H](C(=O)N1CCC[C@H]1c1nc(-c2ccc(-c3ccc(-c4c[nH]c([C@@H]5CCCN5C(=O)[C@@H](NC(=O)OC)C(C)C)n4)cc3)cc2)c[nH]1)C(C)C` [Daclatasvir (BMS-790052)] as the compound, how does the “% normalised alamar Blue reduction at 10μM” value (HEK293T cells) read?
**A.** 80% and 88% and 75%

**Q.** Which results are given for `Cc1cccc(C)c1OCC(=O)N[C@@H](Cc1ccccc1)[C@@H](O)C[C@H](Cc1ccccc1)NC(=O)[C@H](C(C)C)N1CCCNC1=O` [Lopinavir]?
**A.** remaining activity at 1 µM (SARS-CoV-2 Mpro [5]): 80%; remaining activity at 10 µM (SARS-CoV-2 Mpro [5]): 65%

**Q.** Which “% normalised alamar Blue reduction at 10μM” value (HEK293T cells) does the source give for `Cc1c(O)cccc1C(=O)N[C@@H](CSc1ccccc1)[C@H](O)CN1C[C@H]2CCCC[C@H]2C[C@H]1C(=O)NC(C)(C)C` [Nelfinavir mesylate] here?
**A.** 88% and 75.67% and 90%

**Q.** What about the “reduction in the number” value (SARS-CoV-2 [2]) of the same compound?
**A.** approximately 3 log

**Q.** And the “reduction in the number” value (SARS-CoV-2 [2]; listed as Nelfinavir)?
**A.** 3 log

**Q.** What about the “inhibition of virus spread compared to untreated controls” value (SARS-CoV-2 [3]) of the same compound?
**A.** 95%

**Q.** What about the remaining activity at 1 µM (SARS-CoV-2 Mpro [5]) of the same compound?
**A.** 60%

**Q.** And the remaining activity at 10 µM (SARS-CoV-2 Mpro [5])?
**A.** 45%

**Q.** And the “virus titer at 24 h.p.i., Fig S2B data” value (SARS-CoV-2 [6]; 1 µM final concentration (each), Huh-7.5, replicates)?
**A.** 80000 and 64000 and 88000

**Q.** And the EC50 (SARS-CoV-2 [6])?
**A.** 0.07 µM

**Q.** And the “effect of pre-treatment on virus production / entry” value (SARS-CoV-2 [7])?
**A.** only minimal effect on virus production

**Q.** What about the “inhibition of Mpro protease activity” value (SARS-CoV-2 Mpro [8]) of the same compound?
**A.** not found to be effectively inhibiting the Mpro protease activity

**Q.** And the CC50 (Huh-7.5 cells)?
**A.** 26 µM

**Q.** What about the CC50 at 24 h [9] of the same compound?
**A.** 25.9 µM

**Q.** With `CC(C)CN(C[C@@H](O)[C@H](Cc1ccccc1)NC(=O)O[C@H]1CO[C@H]2OCC[C@H]21)S(=O)(=O)c1ccc(N)cc1` [Darunavir] as the compound, how does the “% normalised alamar Blue reduction at 10μM” value (HEK293T cells) read?
**A.** 80% and 97% and 79%

**Q.** With `COC(=O)N[C@H](C(=O)N[C@@H](Cc1ccccc1)[C@@H](O)CN(Cc1ccc(-c2ccccn2)cc1)NC(=O)[C@@H](NC(=O)OC)C(C)(C)C)C(C)(C)C` [Atazanavir] as the compound, how does the “% normalised alamar Blue reduction at 10μM” value (HEK293T cells; listed as Atazanavir sulfate) read?
**A.** 89% and 95.2% and 90.5%

**Q.** And the “inhibition of virus spread compared to untreated controls” value (SARS-CoV-2 [3])?
**A.** below 50%

**Q.** And the remaining activity at 1 µM (SARS-CoV-2 Mpro [5])?
**A.** 89%

**Q.** And the remaining activity at 10 µM (SARS-CoV-2 Mpro [5])?
**A.** 50%

**Q.** And the EC50 (SARS-CoV-2 [10])?
**A.** 0.5 ± 0.08 µM

**Q.** And the EC50 (SARS-CoV-2 [6])?
**A.** 0.06 µM

**Q.** And the “inhibition of Mpro protease activity” value (SARS-CoV-2 Mpro [8])?
**A.** not found to be effectively inhibiting the Mpro protease activity

**Q.** And the CC50 at 24 h [9]?
**A.** 77.2 µM

**Q.** Which “% normalised alamar Blue reduction at 10μM” value (HEK293T cells) does the source give for `C=C[C@@H]1C[C@]1(NC(=O)[C@@H]1C[C@@H](Oc2ncc(OC)c3ccc(Cl)cc23)CN1C(=O)[C@@H](NC(=O)OC(C)(C)C)C(C)(C)C)C(=O)NS(=O)(=O)C1CC1` [Asunaprevir] here?
**A.** 78% and 88% and 90%

**Q.** And the remaining activity at 1 µM (SARS-CoV-2 Mpro [5])?
**A.** 88%

**Q.** And the remaining activity at 10 µM (SARS-CoV-2 Mpro [5])?
**A.** 69%
